Series [1] has as its target T1, recombinant hMAO-B (Homo sapiens, UniProt P27338).
T1 sequence (P27338 1-520): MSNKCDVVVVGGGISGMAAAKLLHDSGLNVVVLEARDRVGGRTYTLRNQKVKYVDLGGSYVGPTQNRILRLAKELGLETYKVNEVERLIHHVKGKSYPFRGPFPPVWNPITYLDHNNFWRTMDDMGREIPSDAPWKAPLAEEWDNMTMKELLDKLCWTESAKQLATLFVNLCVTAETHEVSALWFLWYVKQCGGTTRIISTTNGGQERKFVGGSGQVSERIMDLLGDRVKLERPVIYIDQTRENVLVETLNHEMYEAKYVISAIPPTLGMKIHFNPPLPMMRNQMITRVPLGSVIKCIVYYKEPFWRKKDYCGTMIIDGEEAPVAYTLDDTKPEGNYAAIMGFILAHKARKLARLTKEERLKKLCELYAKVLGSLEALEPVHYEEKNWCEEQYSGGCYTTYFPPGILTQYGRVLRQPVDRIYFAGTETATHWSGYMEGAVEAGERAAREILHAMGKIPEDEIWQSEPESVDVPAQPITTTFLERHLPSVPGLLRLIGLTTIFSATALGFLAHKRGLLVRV
Put plainly: biochemical. The note with it: mean ± SEM (n = 3); 100 µM highest concentration tested. The class given is biochemical.

Series [2] can be described thus: In vitro blood-brain barrier permeation assay (PAMPA-BBB). The class given is in vitro ADME. To be noted: pig, pH 7.4, porcine brain lipid, PBS:ethanol (70:30), 25 °C, read-out: PAMPA-BBB permeability in the CNS (Pe). As to the method:
Prediction of the brain penetration was evaluated using a parallel artificial membrane permeation assay (PAMPA-BBB), in a similar manner as previously described[36]^,[46]^,[51–53]. Pipetting was performed with a semi-automatic pipettor (CyBi®-SELMA) and UV reading with a microplate spectrophotometer (Multiskan Spectrum, Thermo Electron Co.). Commercial drugs, phosphate buffered saline solution at pH 7.4 (PBS), and dodecane were purchased from Sigma, Aldrich, Acros, and Fluka. Millex filter units (PVDF membrane, diameter 25 mm, pore size 0.45 μm) were acquired from Millipore. The porcine brain lipid (PBL) was obtained from Avanti Polar Lipids. The donor microplate was a 96-well filter plate (PVDF membrane, pore size 0.45 μm) and the acceptor microplate was an indented 96-well plate, both from Millipore. The acceptor 96-well microplate was filled with 200 μL of PBS: ethanol (70:30) and the filter surface of the donor microplate was impregnated with 5 μL of porcine brain lipid (PBL) in dodecane (20 mg mL^−1). Compounds were dissolved in PBS: ethanol (70:30) at 100 μg mL^−1, filtered through a Millex filter, and then added to the donor wells (200 μL). The donor filter plate was carefully put on the acceptor plate to form a sandwich, which was left undisturbed for 120 min at 25 °C. After incubation, the donor plate is carefully removed and the concentration of compounds in the acceptor wells was determined by UV-Vis spectroscopy. Every sample is analysed at five wavelengths, in four wells and at least in three independent runs, and the results are given as the mean ± standard deviation. In each experiment, 11 quality control standards of known BBB permeability were included to validate and normalise the analysis set.
To check if new compounds could be able to reach their CNS-targets, we used the in vitro parallel artificial membrane permeability assay for the blood-brain barrier (PAMPA-BBB) described by Di et al.[87], and partially modified by us for testing molecules with limited water-solubility[36]^,[46]^,[51–53]. The passive CNS-permeation of new compounds 1–13 through a lipid extract of porcine brain was measured at room temperature. In each experiment, 11 commercial drugs of known brain permeability were also tested and their permeability values normalised to the reported PAMPA-BBB data. […].
For orientation: PAMPA measures passive passage across an artificial lipid membrane.

The target in series [3] is T2, hLOX-5 (Homo sapiens, UniProt P09917).
T2 sequence (P09917 1-674): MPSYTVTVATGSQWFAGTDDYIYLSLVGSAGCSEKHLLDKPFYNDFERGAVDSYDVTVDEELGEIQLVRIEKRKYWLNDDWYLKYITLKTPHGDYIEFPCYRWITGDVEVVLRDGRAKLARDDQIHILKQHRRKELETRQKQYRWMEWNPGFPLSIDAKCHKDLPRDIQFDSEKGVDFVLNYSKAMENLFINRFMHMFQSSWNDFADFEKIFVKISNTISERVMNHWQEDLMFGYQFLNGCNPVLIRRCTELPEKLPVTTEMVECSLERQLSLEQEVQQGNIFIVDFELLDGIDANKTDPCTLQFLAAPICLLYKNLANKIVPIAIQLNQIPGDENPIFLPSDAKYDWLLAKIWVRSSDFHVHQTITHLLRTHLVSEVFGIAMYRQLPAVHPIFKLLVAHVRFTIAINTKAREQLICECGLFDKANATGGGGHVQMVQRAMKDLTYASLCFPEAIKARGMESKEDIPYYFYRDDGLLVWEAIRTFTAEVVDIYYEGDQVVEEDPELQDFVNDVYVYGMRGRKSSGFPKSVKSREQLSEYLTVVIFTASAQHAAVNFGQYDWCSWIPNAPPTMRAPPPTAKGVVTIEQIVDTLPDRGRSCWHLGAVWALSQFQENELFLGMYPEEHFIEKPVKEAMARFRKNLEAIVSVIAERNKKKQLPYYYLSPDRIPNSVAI
Put plainly: Inhibition of human lipoxygenase-5 (fluorescence-based, Pufahl). The class given is biochemical. The note with it: three independent experiments. As to the method: The fluorescence-based enzyme method developed by Pufahl et al. was followed, in 96-well microtiter plates. The assay solution consists of Tris buffer (50 mM, pH 7.5), ethylenediaminetetraacetic acid (EDTA, 2 mM), CaCl2 (2 mM), arachidonic acid (AA, 3 μM), ATP (10 μM), 2',7'-dichlorodihydrofluorescein diacetate (H2DCFDA, 10 μM), hLOX-5 (100 mU/well), bovine glutathione peroxidase (GPx, 25 mU/well) and reduced glutathione (GSH, 1 mM). Compounds to be tested were added to the test solution prior to AA and ATP, and pre-incubated for a period of 10 min at room temperature. Then, the AA and ATP substrates were added; the enzymatic reaction allowed to progress for 20 min and ended by the addition of 40 μL of acetonitrile.
A selection of new hybrids covering different structural motifs was assayed as inhibitors of hLOX-5, followed the method described by Pufahl et al.[55].

Series [4] deals with T3, σ1R (Cavia porcellus, UniProt Q60492).
T3 construct: the thawed membrane preparation of guinea pig brain cortex; from tissue; host or cells: guinea pig brain cortex membranes
Put plainly: Sigma-1 receptor binding, [3H]-(+)-pentazocine competition. More on the design: species or system guinea pig.

[5] abbreviates: mean ± SEM, read-out: hLOX-5 IC50.

Values joined by “and” are separate entries in the source; they are usually repeats but may differ in a detail not shown here. Identical values can stand only once. Like-named read-outs stand apart in the source and are kept apart here.

This is an account of results in publication PMC6407579, “New flavonoid – N,N-dibenzyl(N-methyl)amine hybrids: Multi-target-directed agents for Alzheimer´s disease endowed with neurogenic properties” (Journal of Enzyme Inhibition and Medicinal Chemistry, 2019).

T3 sequence (Q60492 whole entry): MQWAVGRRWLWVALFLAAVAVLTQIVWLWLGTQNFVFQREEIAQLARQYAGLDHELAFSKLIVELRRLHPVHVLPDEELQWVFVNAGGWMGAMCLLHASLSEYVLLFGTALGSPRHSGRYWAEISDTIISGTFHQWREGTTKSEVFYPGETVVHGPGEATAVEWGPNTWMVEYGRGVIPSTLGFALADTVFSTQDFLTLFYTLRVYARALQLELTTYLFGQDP

The IC50 is the concentration that inhibits the measured activity by half. Usually Ki stands for the dissociation constant of the complex between target and ligand, obtained from inhibition or displacement. Consider `CN(Cc1ccccc1)Cc1ccc(NC(=O)c2cc(=O)c3cc(O)ccc3o2)cc1` [Compound 2, N-(4-((Benzyl(methyl)amino)methyl)phenyl)-6-hydroxy-4-oxo-4H-chromene-2-carboxamide], for which the IC50 in series [1] stood at 9.7 ± 1.6 µM. Moreover, in series [2], the Papp at 120 min, 100 μg mL^−1 was found to be 6.8 ± 0.4 ×10⁻⁶ cm/s. In addition, the “hLOX-5 IC50” value in series [3] (mean ± SEM) was “inactive”. In series [3] (setting [5]), the IC50 was over 100 µM. In series [4], affinity was put at a Ki of 0.38 ± 0.05 µM and the “Selectivity vs. σ1R (Kiσ2R/Kiσ1R)” value stood at 4.2.
Regarding `COc1ccc2oc(C(=O)Nc3ccc(CN(C)Cc4ccccc4)cc3)cc(=O)c2c1` [Compound 1, N-(4-((Benzyl(methyl)amino)methyl)phenyl)-6-methoxy-4-oxo-4H-chromene-2-carboxamide], in series [1], the IC50 came to 59.8 ± 3.7 µM. Further, in series [2], the Papp at 120 min, 100 μg mL^−1 is 17.1 ± 1.5 ×10⁻⁶ cm/s. For the same compound, the IC50 in series [3] (setting [5]) was found to be 12.4 ± 0.5 µM. Also, in series [4], the affinity, expressed as Ki, was 0.48 ± 0.05 µM and the “Selectivity vs. σ1R (Kiσ2R/Kiσ1R)” value stood at 3.7.
`COc1cc2oc(C(=O)Nc3cccc(CN(C)Cc4ccccc4)c3)cc(=O)c2cc1OC` [Compound 6, N-(3-((Benzyl(methyl)amino)methyl)phenyl)-6,7-dimethoxy-4-oxo-4H-chromene-2-carboxamide]: the IC50 in series [1] was over 100 µM; in series [3] (hLOX-5 IC50, mean ± SEM) it was 30 µM and 30.4 µM; in series [4], 0.53 µM and 0.5 µM. Also, in series [2], the Papp at 120 min, 100 μg mL^−1 was 18.8 ± 1.3 ×10⁻⁶ cm/s. In series [4], the “Selectivity vs. σ1R (Kiσ2R/Kiσ1R)” value came out at 2.5. Moreover, the Ki in series [4] (guinea pig brain cortex membranes, [3H]-(+)-pentazocine, mean ± SEM, read-out: Ki σ1R) was determined as 0.53 ± 0.07 µM.
As for `COc1cc2oc(C(=O)Nc3ccc(CN(C)Cc4ccccc4)cc3)cc(=O)c2cc1OC` [Compound 5, N-(4-((Benzyl(methyl)amino)methyl)phenyl)-6,7-dimethoxy-4-oxo-4H-chromene-2-carboxamide], the IC50 in series [1] stood at 8.1 ± 0.4 µM; in series [3] (setting [5]) it was 72.4 ± 2.2 µM. For the same compound, the Papp at 120 min, 100 μg mL^−1 in series [2] came out at 19.1 ± 1.5 ×10⁻⁶ cm/s.
